Measurements: ChEMBL document CHEMBL5537151, “Design, synthesis and bioactivity evaluation of novel fusion peptides and their CPT conjugates inducing effective anti-tumor responses on HER2 positive tumors” (Eur J Med Chem, 2024)
Peptide text beside a SMILES is read from it. * marks the point of attachment. X7 = CCC1(OC(=O)CCCCCN2C(=O)CC(SC[C@H](N)C(=O)*)C2=O)C(=O)OCc2c1cc1n(c2=O)Cc2cc3ccccc3nc2-1; X4 = CCC1(OC(=O)OCCSSC[C@H](N)C(=O)*)C(=O)OCc2c1cc1n(c2=O)Cc2cc3ccccc3nc2-1; X3 = CCC1(OC(=O)CCSSC[C@H](N)C(=O)*)C(=O)OCc2c1cc1n(c2=O)Cc2cc3ccccc3nc2-1; X6 = CCC1(OC(=O)OCCS*)C(=O)OCc2c1cc1n(c2=O)Cc2cc3ccccc3nc2-1

Columns and labels:
[1] = tested on: MDA-MB-231; assay: cells; conditions: Homo sapiens, MDA-MB-231, 48 h
Description: Cytotoxicity against HER-negative human MDA-MB-231 cells incubated for 48 hrs by CCK-8 assay

[2] = tested on: SK-BR-3; assay: cells; conditions: Homo sapiens, SK-BR-3, 48 h
Description: Cytotoxicity against HER-positive human SK-BR-3 cells incubated for 48 hrs by CCK-8 assay

[3] = tested on: NCI-N87; assay: cells; conditions: Homo sapiens, NCI-N87, 48 h
Description: Cytotoxicity against HER-positive human NCI-N87 cells incubated for 48 hrs by CCK-8 assay

[4] = tested on: SK-OV-3; assay: cells; conditions: Homo sapiens, SK-OV-3, 48 h
Description: Cytotoxicity against HER-positive human SK-OV-3 cells incubated for 48 hrs by CCK-8 assay

[5] = Cytotoxicity against HER-negative human MCF-10A cells incubated for 48 hrs by CCK-8 assay; format: toxicity, cell-based
[6] = tested on: SK-BR-3; assay: Induction of apoptosis in human SK-BR-3 cells assessed as live cells at 1 uM incubated for 24 hrs by Annexin V-FITC/PI staining based flow cytometry analysis (reference value: 94.6%); format: functional
[7] = Toxicity in nude mouse xenografted with human SK-BR-3 cells assessed as change in globulin level at 8 umol/kg, iv administered every 3 days for 14 days; format: organism-based; conditions: in vivo, 336 h, dose 8 µmol/kg, time 14 day
[8] = Toxicity in nude mouse xenografted with human SK-BR-3 cells assessed as change in alkaline phosphatase level at 8 umol/kg, iv administered every 3 days for 14 days; format: organism-based; conditions: in vivo, 336 h, dose 8 µmol/kg, time 14 day
[9] = Toxicity in nude mouse xenografted with human SK-BR-3 cells assessed as change in albumin level at 8 umol/kg, iv administered every 3 days for 14 days; format: organism-based; conditions: in vivo, 336 h, dose 8 µmol/kg, time 14 day
[10] = Toxicity in nude mouse xenografted with human SK-BR-3 cells assessed as change in total protein level at 8 umol/kg, iv administered every 3 days for 14 days; format: organism-based; conditions: in vivo, 336 h, dose 8 µmol/kg, time 14 day
[11] = tested on: SK-BR-3; assay: Induction of apoptosis in human SK-BR-3 cells assessed as late apoptotic cells at 1 uM incubated for 24 hrs by Annexin V-FITC/PI staining based flow cytometry analysis (reference value: 1.11%); format: functional
[12] = tested on: SK-BR-3; assay: Induction of apoptosis in human SK-BR-3 cells assessed as necrotic cells at 1 uM incubated for 24 hrs by Annexin V-FITC/PI staining based flow cytometry analysis (reference value: 1.49%); format: functional
[13] = Toxicity in nude mouse xenografted with human SK-BR-3 cells assessed as increase in ALT level at 8 umol/kg, iv administered every 3 days for 14 days; format: organism-based; conditions: in vivo, 336 h, dose 8 µmol/kg, time 14 day
[14] = tested on: SK-BR-3; assay: Induction of apoptosis in human SK-BR-3 cells assessed as early apoptotic cells at 1 uM incubated for 24 hrs by Annexin V-FITC/PI staining based flow cytometry analysis (reference value: 2.80%); format: functional
[15] = Toxicity in nude mouse xenografted with human SK-BR-3 cells assessed as increase in AST level at 8 umol/kg, iv administered every 3 days for 14 days; format: organism-based; conditions: in vivo, 336 h, dose 8 µmol/kg, time 14 day

| SMILES | IC50 [1] [µM] | IC50 [2] [µM] | IC50 [3] [µM] | IC50 [4] [µM] | IC50 at 48 h [5] [µM] | Activity [6] [%] | Activity [7] | Activity [8] | Activity [9] | Activity [10] | Activity [11] [%] | Activity [12] [%] | Activity [13] | Activity [14] [%] | Activity [15] |
| --- | --- | --- | --- | --- | --- | --- | --- | --- | --- | --- | --- | --- | --- | --- | --- |
| CC[C@H](C)[C@H](NC(=O)[C@@H]1CCCN1C(=O)[C@@H](NC(=O)[C@H](C)N)C(C)C)C(=O)N[C@@H](C)C(=O)N[C@@H](CCC(N)=O)C(=O)N[C@@H](CCCCN)C(=O)NCC(=O)N[C@@H](Cc1ccccc1)C(=O)N[C@@H](CC(C)C)C(=O)NCC(=O)N[C@@H](CC(N)=O)C(=O)N1CCC[C@H]1C(=O)N[C@@H](CC(N)=O)C(=O)N[C@@H](Cc1c[nH]c2ccccc12)C(=O)NCC(=O)N[C@@H](CCCNC(=N)N)C(=O)N[C@@H](CO)C(=O)N[C@@H](Cc1c[nH]c2ccccc12)C(=O)N[C@@H](Cc1ccc(O)cc1)C(=O)N[C@@H](CC(N)=O)C(=O)N[C@@H](CCC(N)=O)C(=O)N[C@@H](CCCNC(=N)N)C(=O)N[C@@H](Cc1ccccc1)C(=O)N[C@@H](CCCCNC(=O)[C@@H](N)CSSCCC(=O)OC1(CC)C(=O)OCc2c1cc1n(c2=O)Cc2cc3ccccc3nc2-1)C(N)=O (stereo not given in full) (H-AVPIAQKGFLGNPNWGRSWYNQRFK(X3)-NH2) | 15.1 | 2.3 | 8.01 | 4.73 | 28.4 |  |  |  |  |  |  |  |  |  |  |
| CC[C@H](C)[C@H](NC(=O)[C@@H]1CCCN1C(=O)[C@@H](NC(=O)[C@H](C)N)C(C)C)C(=O)N[C@@H](C)C(=O)N[C@@H](CCC(N)=O)C(=O)N[C@@H](CCCCN)C(=O)NCC(=O)N[C@@H](Cc1ccccc1)C(=O)N[C@@H](CC(C)C)C(=O)NCC(=O)N[C@@H](CC(N)=O)C(=O)N1CCC[C@H]1C(=O)N[C@@H](CC(N)=O)C(=O)N[C@@H](Cc1c[nH]c2ccccc12)C(=O)NCC(=O)N[C@@H](CCCNC(=N)N)C(=O)N[C@@H](CO)C(=O)N[C@@H](Cc1c[nH]c2ccccc12)C(=O)N[C@@H](Cc1ccc(O)cc1)C(=O)N[C@@H](CC(N)=O)C(=O)N[C@@H](CCC(N)=O)C(=O)N[C@@H](CCCNC(=N)N)C(=O)N[C@@H](Cc1ccccc1)C(=O)N[C@@H](CCCCNC(=O)[C@@H](N)CSC1CC(=O)N(CCCCCC(=O)OC2(CC)C(=O)OCc3c2cc2n(c3=O)Cc3cc4ccccc4nc3-2)C1=O)C(N)=O (stereo not given in full) (H-AVPIAQKGFLGNPNWGRSWYNQRFK(X7)-NH2) | 31.4 | 12.6 | 24.2 | > 50 | > 50 |  |  |  |  |  |  |  |  |  |  |
| CC[C@@]1(O)C(=O)OCc2c1cc1n(c2=O)Cc2cc3ccccc3nc2-1 [CAMPTOTHECIN] | 0.53 | 0.38 | 2.07 | 4.07 | 3.02 | 54.9 | Non-Toxic | Non-Toxic | Non-Toxic | Non-Toxic | 16.9 | 0.94 | Toxic | 27.3 | Toxic |

The remaining molecules from weak to strong by IC50 [1], led by results:

| IC50 [1] [µM] | IC50 [2] [µM] | IC50 [3] [µM] | IC50 [4] [µM] | SMILES | IC50 at 48 h [5] [µM] | Activity [6] [%] | Activity [7] | Activity [8] | Activity [9] | Activity [10] | Activity [11] [%] | Activity [12] [%] | Activity [13] | Activity [14] [%] | Activity [15] |
| --- | --- | --- | --- | --- | --- | --- | --- | --- | --- | --- | --- | --- | --- | --- | --- |
| 6.43 | 0.85 | 3.04 | 4.03 | CC[C@H](C)[C@H](NC(=O)[C@@H]1CCCN1C(=O)[C@@H](NC(=O)[C@H](C)N)C(C)C)C(=O)N[C@@H](C)C(=O)N[C@@H](CCC(N)=O)C(=O)N[C@@H](CCCCN)C(=O)NCC(=O)N[C@@H](Cc1ccccc1)C(=O)N[C@@H](CC(C)C)C(=O)NCC(=O)N[C@@H](CSSCCOC(=O)OC1(CC)C(=O)OCc2c1cc1n(c2=O)Cc2cc3ccccc3nc2-1)C(=O)N[C@@H](CC(N)=O)C(=O)N1CCC[C@H]1C(=O)N[C@@H](CC(N)=O)C(=O)N[C@@H](Cc1c[nH]c2ccccc12)C(=O)NCC(=O)N[C@@H](CCCNC(=N)N)C(=O)N[C@@H](CO)C(=O)N[C@@H](Cc1c[nH]c2ccccc12)C(=O)N[C@@H](Cc1ccc(O)cc1)C(=O)N[C@@H](CC(N)=O)C(=O)N[C@@H](CCC(N)=O)C(=O)N[C@@H](CCCNC(=N)N)C(=O)N[C@@H](Cc1ccccc1)C(=O)N[C@@H](CCCCN)C(N)=O (stereo not given in full) (H-AVPIAQKGFLGC(X6)NPNWGRSWYNQRFK-NH2) | 18.2 |  |  |  |  |  |  |  |  |  |  |
| 4.73 | 0.58 | 3.86 | 6.17 | CC[C@H](C)[C@H](NC(=O)[C@@H]1CCCN1C(=O)[C@@H](NC(=O)[C@H](C)N)C(C)C)C(=O)N[C@@H](C)C(=O)N[C@@H](CCC(N)=O)C(=O)N[C@@H](CCCCN)C(=O)NCC(=O)N[C@@H](Cc1ccccc1)C(=O)N[C@@H](CC(C)C)C(=O)NCC(=O)N[C@@H](CC(N)=O)C(=O)N1CCC[C@H]1C(=O)N[C@@H](CC(N)=O)C(=O)N[C@@H](Cc1c[nH]c2ccccc12)C(=O)NCC(=O)N[C@@H](CCCNC(=N)N)C(=O)N[C@@H](CO)C(=O)N[C@@H](Cc1c[nH]c2ccccc12)C(=O)N[C@@H](Cc1ccc(O)cc1)C(=O)N[C@@H](CC(N)=O)C(=O)N[C@@H](CCC(N)=O)C(=O)N[C@@H](CCCNC(=N)N)C(=O)N[C@@H](Cc1ccccc1)C(=O)N[C@@H](CCCCNC(=O)[C@@H](N)CSSCCOC(=O)OC1(CC)C(=O)OCc2c1cc1n(c2=O)Cc2cc3ccccc3nc2-1)C(N)=O (stereo not given in full) (H-AVPIAQKGFLGNPNWGRSWYNQRFK(X4)-NH2) | 15.2 |  |  |  |  |  |  |  |  |  |  |
